Experimental data: patent US20130225641A1, “ANTICANCER COMPOUNDS AND PREPARATION METHODS THEREOF” (priority 2010, published 2013)

What was measured:
Format in all cases: in vivo, nude mice (nu/nu)
[1] = tested on: human liver cancer cells (HepG3B); experiment: Transplantation model of human liver cancer (HepG3B) in nude mice; conditions: HepG3B subcutaneous in nude mice; oral daily 5 days/week, 3 weeks; ZTP 30 mg/kg, ZTQ 60 mg/kg; lower = stronger
Experimental: (§1) T-cell deficient nude mice (nu/nu) of 6 weeks old were purchased from Charles River Laboratory, and housed and treated in a sterile environment following Institutional Animal Care & Use Committee Program. 48 mice were respectively subcutaneously inoculated on ribbed belly with 5×10^6 human liver cancer cells (HepG3B), human lung caner cells (NCI-H23), and human colon cancer cells (HCT-116) suspended in 0.2 ml HBSS/matrigel (50:50, V/V). When the tumor grew to have an average diameter of 7-8 mm and a volume of about 100-200 mm^3, 24 mice were picked up, and assigned to treatment groups (16 animals/2 groups), and a control group (8 animals). The 2 treatment groups were administered with the compounds ZTP and ZTQ dissolved in 15% Captsol respectively at a dose of 30 mg/kg and 60 mg/kg, and the control group only received an excipient (15% Captsol).
(§2) The same number of mice of each type was assigned to the control group and the treatment groups with the compounds ZTP and ZTQ respectively.
(§3) The dose schedule of the test compounds in the tumor transplanted nude mice was as follows: the compounds ZTP and ZTQ dissolved in 15% Captsol were daily orally administered as a 200 μl solution containing 0.75 mg of ZTP and 1.5 mg of ZTQ for 5 days/week over 3 consecutive weeks, followed by one-week break; and the control group was only administered with 200 μl of the placebo (15% Captsol) for 3 weeks, followed by 1 week of break. The two groups of animals were housed separately, and allowed to free access to food.
(§4) Evaluation of antitumor effect: the tumor size was measured every 3 or 4 days. The tumor volume was calculated using the equation below: […], in which a denotes the width (the shorter diameter), and b denotes the length (the longer diameter). Relative tumor volume (RTV) of each tumor refers to the ratio of the volume at a specified time to that at the beginning of the treatment. The average RTV for each treatment group was calculated. The antitumor activity was determined by calculating the tumor growth inhibition using a formula below. […]

[2] = tested on: human lung cancer cells (NCI-H23); experiment: Transplantation model of human lung cancer (NCI-H23) in nude mice; conditions: NCI-H23 subcutaneous in nude mice; oral daily 5 days/week, 3 weeks; ZTP 30 mg/kg, ZTQ 60 mg/kg; lower = stronger
Experimental: as §1, §2, §3, §4

[3] = tested on: human colon cancer cells (HCT-116); experiment: Transplantation model of human colon cancer (HCT-116) in nude mice; conditions: HCT-116 subcutaneous in nude mice; oral daily 5 days/week, 3 weeks; ZTP 30 mg/kg, ZTQ 60 mg/kg; lower = stronger
Experimental: as §1, §2, §3, §4

[4] = Side effects in tumor transplanted nude mice; conditions: during treatment
Experimental: as §1, §3

## CNC(=O)c1cc(Oc2ccc(NC(=O)Nc3ccc(Cl)c(C(F)(F)F)c3)cc2)ccn1 [Sorafenib, reference compound]
[1]
  TGI (T/C×100): 14%
[2]
  TGI (T/C×100): 11.25%
[3]
  TGI (T/C×100): 33%
[4]
  side effect, including the change in body weight: relatively large side effect

## N-[4-chloro-3-(trifluoromethyl)phenyl]-[4-(N-methyl-formamide)(4-pyridyloxy)phenyl]-thiourea [ZTP]
[4]
  side effect, including the change in body weight: no obvious side effect
